Test results from the NIST ThermoML archive (doi:10.1021/je800596c).
Numbers after ± are expanded uncertainties.

Experiments:
[1] = Crystal; DTA
[2] = Molar enthalpy of transition or fusion; conditions: Crystal; DSC

| Normal melting temperature [1] [°C] | Molar enthalpy of transition or fusion [2] [kcal/mol] | Structure (SMILES) |
| --- | --- | --- |
| 137.56 ± 0.5 | 7.22 ± 0.206 | COC(=O)C=Cc1ccc(O)cc1 [2-propenoic acid, 3-(4-hydroxyphenyl)-, methyl ester] |
| 88.64 ± 0.5 | 7.14 ± 0.203 | COC(=O)/C=C/c1cc(OC)c(O)c(OC)c1 [3,5-dimethoxy-4-hydroxy cinnamic acid methyl ester] |
| 62.56 ± 0.5 | 6.17 ± 0.179 | COC(=O)C=Cc1ccc(O)c(OC)c1 [methyl 3-(4-hydroxy-3-methoxyphenyl)-2-propenoate] |
